Consider one molecule from US20040253139A1, “Environmental surface disinfectant” (priority 2003, published 2004).

The assay relates to E. coli (ATCC 25922). The assay can be described thus: Lower effective concentration of ethyl lactate, modification of AOAC Method 956.17. In kind it is cell-based. To be noted: 15% solution of ethyl lactate, exposure 10 minutes. The protocol: Using a modification of AOAC Method 956.17, the lower effective concentration for ethyl lactate was tested against E. coli (ATCC 25922) at three reaction times at varying concentrations of ethyl lactate.

With `CCOC(=O)C(C)O` (stereo not shown) [ethyl lactate], the Bacterial growth entry is reported as “eliminated bacterial growth”.
